Data taken from patent publication US12692267B2 (Madera Therapeutics, LLC, priority 2019, dated 2026).
Like-named read-outs stand apart in the source and are kept apart here. Blank lines part the entries; values can stand above or below the compound they belong to.

Tests used:
[1] = test system: HCT116 (human colon cancer); assay: Cancer cell viability, CCK-8, HCT116; format: cell-based; settings: for EC50: read-out: EC50 (uM, HCT116); for IC50: read-out: IC50 (uM, HCT116)
Protocol: (§1) Cancer cell lines. […] The plate is incubated for 48 hours.
(§2) CCK-8 solution is added directly to the cells.

[2] = target: recombinant human caseinolytic peptidase hClpP (Homo sapiens, UniProt Q16740); assay: hClpP peptide hydrolysis assay (Ac-WLA-AMC); settings: for Dose-dependency of hClpP activation: Protocol 2, purified hClpP, Ac-WLA-AMC; for Time course of hClpP activity: 1 uM, Protocol 2
Chain of recombinant human caseinolytic peptidase hClpP (Q16740 57-277): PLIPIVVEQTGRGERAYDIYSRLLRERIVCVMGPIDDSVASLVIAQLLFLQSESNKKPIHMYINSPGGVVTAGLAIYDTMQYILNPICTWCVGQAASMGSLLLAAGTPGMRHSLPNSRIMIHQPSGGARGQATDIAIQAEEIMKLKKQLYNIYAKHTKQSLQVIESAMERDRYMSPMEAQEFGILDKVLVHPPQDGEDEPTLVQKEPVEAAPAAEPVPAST
Protocol: Briefly, the activity of recombinant hClpP proteolytic subunit (1 μg/mL) was measured in the assay buffer composed of 50 mM Tris, 10 mM MgCl2, 100 mM KCl, 1 mM DTT, 4 mM ATP, 0.02% Triton X-100 and 5% Glycerol, pH 8.0 (HCl) using 10 µM of fluorogenic Ac-WLA-AMC substrate as described in references above. […] Using the first protocol (Protocol 1), the reaction was initiated by immediately mixing enzyme and substrate in the presence of indicated doses of compounds. Applying a second protocol (Protocol 2), the enzyme and compounds were mixed and incubated in assay buffer for 60 min before initiating the reaction by adding Ac-WLA-ACM substrate.
Enzymatic activity of hClpP was measured in assay buffer (as described in Experimental Procedure/Materials and Methods) and the level of fluorescence of liberated coumarin monitored continuously.

[3] = test system: MDA-MB-231 (MDA 231, human breast adenocarcinoma); assay: Cancer cell viability, CCK-8, MDA-MB-231; format: cell-based; settings: for EC50: read-out: EC50 (uM, MDA 231); for IC50: read-out: IC50 (uM, MDA 231)
Protocol: as §1, §2

ClpX and TUFM = ClpX and TUFM Western blots in SUM159 cells (FIG. 5); settings: concentration response and time course
[4] = Homo sapiens, HCT-116, 48 h, HCT116, 48 hours, CCK-8
[5] = Homo sapiens, MDA-MB-231, MDA 231, 48 hours, CCK-8

SMILES: N#Cc1cccc(CC2CCC3=C(C2)C(=O)N(Cc2ccc(C(F)(F)F)cc2)C2=NCCN23)c1 (stereo not shown) [Ex. 67, 3-[(5-oxo-4-{[4-(trifluoromethyl)phenyl]methyl}-1H,2H,4H,5H,6H,7H,8H,9H-imidazo[1,2-a]quinazolin-7-yl)methyl]benzonitrile]
- EC50 [1, 4]: 1.2 µM
- Dose-dependency of hClpP activation [2]: Dose-dependent increases in hClpP activity

SMILES: CC#Cc1cccc(CN2CCc3ncn(Cc4ccc(C(F)(F)F)cc4)c(=O)c3C2)c1 [Example 79]
- EC50 [1, 4]: 5.7 µM

SMILES: O=C(NCc1ccc2c(c1)OCO2)c1nnc(Cc2ccc(F)cc2Cl)o1 [Ex. 1, reference compound]
- Dose-dependency of hClpP activation [2]: dose-dependent increases in hClpP activity

SMILES: N#Cc1cccc(CN2CCc3ncn(Cc4ccc(Br)cc4)c(=O)c3C2)c1 [Example 74, 3-({3-[(4-bromophenyl)methyl]-4-oxo-3H,4H,5H,6H,7H,8H-pyrido[4,3-d]pyrimidin-6-yl}methyl)benzonitrile]
- EC50 [1, 4]: 0.02 µM

SMILES: Cn1c2c(c(=O)n(Cc3ccc(C(F)(F)F)cc3)c1=O)CN(Cc1cccc(Cl)c1)CC2 [Example 56]
- EC50 ([1]; HCT116, 48 hours, CCK-8): 0.098 µM
- EC50 ([3]; MDA 231, 48 hours, CCK-8): 0.29 µM

SMILES: N#Cc1cccc(CN2CCc3ncn(Cc4ccc(C(F)(F)F)cc4)c(=O)c3C2)c1 [Example 75, 3-[(4-oxo-3-{[4-(trifluoromethyl)phenyl]methyl}-3H,4H,5H,6H,7H,8H-pyrido[4,3-d]pyrimidin-6-yl)methyl]benzonitrile]
- EC50 [1, 4]: 0.098 µM

SMILES: Cc1nc2c(c(=O)n1Cc1ccc(Cl)cc1)CN(Cc1cccc(C#N)c1)C2 [Example 69, 3-({3-[(4-chlorophenyl)methyl]-2-methyl-4-oxo-3H,4H,5H,6H,7H-pyrrolo[3,4-d]pyrimidin-6-yl}methyl)benzonitrile]
- EC50 [1, 4]: 0.097 µM

SMILES: O=C1C2=C(CN(Cc3ccccc3)C2)N2CCN=C2N1Cc1ccc(Br)cc1 [Example 81, 4-benzyl-8-[(4-bromophenyl)methyl]1,4,8,10-tetraazatricyclo[7.3.0.0^2,6]dodeca-2 (6),9-diene-7-one]
- EC50 [1, 4]: 0.039 µM
- Time course of hClpP activity [2]: time-dependent increase in hClpP activity

SMILES: N#Cc1cccc(CN2CCc3c(c(=O)n(Cc4ccc(C(F)(F)F)cc4)c(=O)n3CCCCN)C2)c1 [Example 58, 3-((1-(4-aminobutyl)-2,4-dioxo-3-(4-(trifluoromethyl)benzyl)-1,2,3,4,7,8-hexahydropyrido[4,3-d]pyrimidin-6 (5H)-yl)methyl)benzonitrile]
- EC50 [1, 4]: 0.23 µM

SMILES: O=C1C2=C(CN(Cc3ccccc3)C2)N2CCN=C2N1Cc1ccc(C(F)(F)F)cc1 [Example 82, 4-benzyl-8-{[4-(trifluoromethyl)phenyl]methyl}1,4,8,10-tetraazatricyclo[7.3.0.0^2,6]dodeca-2 (6), 9-diene-7-one]
- EC50 [1, 4]: 0.01 µM
- Time course of hClpP activity [2]: time-dependent increase in hClpP activity

SMILES: Cc1nc2c(c(=O)n1Cc1ccc(Br)cc1)CN(Cc1cccc(C#N)c1)CC2 [Example 72, 3-({3-[(4-bromophenyl)methyl]-2-methyl-4-oxo-3H,4H,5H,6H,7H,8H-pyrido[4,3-d]pyrimidin-6-yl}methyl)benzonitrile]
- EC50 [1, 4]: 0.077 µM

SMILES: Cc1nc2c(c(=O)n1Cc1ccc(C(F)(F)F)cc1)CN(Cc1cccc(C#N)c1)CC2 [Example 73, 3-[(2-methyl-4-oxo-3-{[4-(trifluoromethyl)phenyl]methyl}-3H,4H,5H,6H,7H,8H-pyrido[4,3-d]pyrimidin-6-yl)methyl]benzonitrile]
- EC50 [1, 4]: 0.069 µM

SMILES: CC#Cc1cccc(CN2CCc3ncn(Cc4ccc(Br)cc4)c(=O)c3C2)c1 [Example 78]
- EC50 [1, 4]: 5.2 µM

SMILES: Cn1c2c(c(=O)n(Cc3cccc(C(F)(F)F)c3)c1=O)CN(Cc1ccccc1)CC2 [Example 39]
- EC50 [1, 4]: 1.4 µM
- EC50 [3, 5]: 1.1 µM

SMILES: N#Cc1cccc(Cc2nnc(C(=O)NCc3ccc(Cl)cc3)o2)c1 [Example 63, N-[(4-chlorophenyl)methyl]-5-[(3-cyanophenyl)methyl]-1,3,4-oxadiazole-2-carboxamide]
- EC50 [1, 4]: 4 µM
- EC50 [3, 5]: 5 µM

SMILES: Cc1ccccc1CN1C(=O)C2=C(CCN(Cc3ccccc3)C2)N2CCN=C12 [ONC201, reference compound]
- EC50 ([1]; Homo sapiens, HCT-116, 48 h): 2.8 µM
- IC50 ([1]; Homo sapiens, HCT-116, 48 h): 2.8 µM
- EC50 ([3]; Homo sapiens, MDA-MB-231, 48 h): 3 µM
- IC50 ([3]; Homo sapiens, MDA-MB-231, 48 h): 3 µM
- ClpX and TUFM protein level (ClpX and TUFM): reduction of the protein ClpX and TUFM

The next lines start with results.

- EC50 [1, 4]: 1.4 µM
SMILES: CC1(C)CN=C2N(Cc3ccc(Cl)cc3)C(=O)C3=C(CCN(Cc4cccc(C#N)c4)C3)N2C1 [Example 70, 3-({9-[(4-chlorophenyl)methyl]-13,13-dimethyl-8-oxo-1,5,9,11-tetraazatricyclo[8.4.0.0^2,7]tetradeca-2 (7), 10-dien-5-yl}methyl)benzonitrile]

- EC50 [1, 4]: 0.022 µM
- EC50 [3, 5]: 0.021 µM
SMILES: N#Cc1cccc(CN2CCC3=C(C2)C(=O)N(Cc2ccc(C(F)(F)F)cc2)C2=NCCCN23)c1 [Ex. 62, 3-[(8-oxo-9-{[4-(trifluoromethyl)phenyl]methyl}-1,5,9,11-tetraazatricyclo[8.4.0.0^2,7]tetradeca-2(7),10-dien-5-yl)methyl]benzonitrile]
- Dose-dependency of hClpP activation [2]: Dose-dependent increases in hClpP activity

- EC50 [1, 4]: 10.5 µM
SMILES: O=C1CCc2ccc(CN3CCC4=C(C3)C(=O)N(Cc3ccc(Cl)cc3)C3=NCCN34)cc21 [Example 64, 7-[(4-chlorophenyl)methyl]-11-[(3-oxo-2,3-dihydro-1H-inden-5-yl)methyl]-2,5,7,11-tetraazatricyclo[7.4.0.0^2,6]trideca-1(9),5-dien-8-one]

- EC50 [1, 4]: 0.28 µM
SMILES: N#Cc1cccc(CN2CCC3=C(C2)C(=O)N(Cc2ccc(Cl)cc2)C2=NCCCN23)c1 [Example 83, 3-({9-[(4-chlorophenyl)methyl]-8-oxo-1,5,9,11-tetraazatricyclo[8.4.0.0 ^2,7]tetradeca-2(7), 10-dien-5yl}methyl)benzonitrile]
- Time course of hClpP activity [2]: time-dependent increase in hClpP activity

- EC50 [1, 4]: 0.013 µM
SMILES: N#Cc1cccc(CN2CCC3=C(C2)C(=O)N(Cc2ccc(Br)cc2)C2=NCCCN23)c1 [Example 84, 3-({9-[(4-bromophenyl)methyl]-8-oxo-1,5,9,11-tetraazatricyclo[8.4.0.0 ^2,7]tetradeca-2(7), 10-dien-5yl}methyl)benzonitrile]
- Time course of hClpP activity [2]: time-dependent increase in hClpP activity

- IC50 [1, 4]: 1.8 µM
- IC50 [3, 5]: 3.4 µM
SMILES: N#Cc1ccc(CN2CCC3=C(C2)C(=O)N(Cc2ccc(Cl)cc2)C2=NCCN23)cc1 [Example 22]

- EC50 [1, 4]: 0.097 µM
- EC50 [3, 5]: 0.096 µM
SMILES: Cc1nc2c(c(=O)n1Cc1ccc(Cl)cc1)CN(Cc1cccc(C#N)c1)CC2 [Example 61, 3-({3-[(4-chlorophenyl)methyl]-2-methyl-4-oxo-3H,4H,5H,6H,7H,8H-pyrimidin-6-yl}methyl)benzonitrile]

- EC50 [1, 4]: 0.244 µM
SMILES: N#Cc1cccc(CN2CCC3=C(C2)C(=O)N(Cc2ccc(Cl)cc2)C2=NCC(F)(F)CN23)c1 [Example 71, 3-({9-[(4-chlorophenyl)methyl]-13,13-difluoro-8-oxo-1,5,9,11-tetraazatricyclo[8.4.0.0^2,7]tetradeca-2 (7), 10-dien-5-yl}methyl)benzonitrile]

- IC50 ([1]; HCT116, 48 hours, CCK-8): 0.36 µM
- IC50 ([3]; MDA 231, 48 hours, CCK-8): 0.27 µM
SMILES: O=C1C2=C(CCN(Cc3cccc(OC(F)(F)F)c3)C2)N2CCN=C2N1Cc1ccc(C(F)(F)F)cc1 [Example 3]

- EC50 [1, 4]: 0.003 µM
SMILES: N#Cc1cccc(CN2CC3=C(C2)N2CCN=C2N(Cc2ccc(Br)cc2)C3=O)c1 [Example 76, 3-({8-[(4-bromophenyl)methyl]-7-oxo-1,4,8,10-tetraazatricyclo[7.3.0.0^2,6}dodeca-2(6),9-dien-4-yl}methyl)benzonitrile]

- EC50 [1, 4]: 0.011 µM
SMILES: O=C1C2=C(CN(Cc3ccccc3)C2)N2CCN=C2N1Cc1ccc(Cl)cc1 [Example 80, 4-benzyl-8-[(4-chlorophenyl)methyl]1,4,8,10-tetraazatricyclo[7.3.0.0^2,6]dodeca-2 (6),9-diene-7-one]
- Time course of hClpP activity [2]: time-dependent increase in hClpP activity

- EC50 [1, 4]: 1.5 µM
SMILES: N#Cc1cccc(CC2CCC3=C(C2)C(=O)N(Cc2ccc(Cl)cc2)C2=NCCN23)c1 (stereo not shown) [Ex. 68, 3-({4-[(4-chlorophenyl)methyl]-5-oxo-1H,2H,4H,5H,6H,7H,8H,9H-imidazo[1,2-a]quinazolin-7-yl}methyl)benzonitrile]
- Dose-dependency of hClpP activation [2]: Dose-dependent increases in hClpP activity

- EC50 [1, 4]: 0.0021 µM
SMILES: N#Cc1cccc(CN2CC3=C(C2)N2CCN=C2N(Cc2ccc(C(F)(F)F)cc2)C3=O)c1 [Example 77, 3-[(7-oxo-8-{[4-(trifluoromethyl)phenyl]methyl}-1,4,8,10-tetraazatricyclo[7.3.0.0^2,6]dodeca-2 (6),9-dien-4-yl)methyl]benzonitrile]

- EC50 [1, 4]: 0.0055 µM
SMILES: N#Cc1cccc(CN2CC3=C(C2)N2CCN=C2N(Cc2ccc(Cl)cc2)C3=O)c1 [Ex. 66]
- Dose-dependency of hClpP activation [2]: Dose-dependent increases in hClpP activity

- IC50 [1, 4]: 0.016 µM
- IC50 [3, 5]: 0.016 µM
SMILES: O=C1C2=C(CCN(Cc3cccc(Cl)c3)C2)N2CCN=C2N1Cc1ccc(C(F)(F)F)cc1 [Example 27]
